Measured values published in article PMC11302339, “A series of pyrimidine-based antifungals with anti-mold activity disrupt ER function in Aspergillus fumigatus” (Microbiology Spectrum, 2024).
Converted amounts (≈) assume the structure as drawn.

What was measured:
[1] = test system: A. fumigatus UPR-responsive genes; test: A. fumigatus UPR gene expression (qRT-PCR); format: cell-based, Aspergillus fumigatus; details: single agent (16 µg/mL 1, or 1 mM DTT for 1 hour); normalized to DMSO
Method: We cultured 5 × 10^6 CEA10 conidia/mL in liquid GMM for 18 hours at 37°C with shaking at 250 rpm. Cultures were treated with either DMSO or 16 µg/mL 1 for 2 hours at 37°C, 250 rpm. Then 1 mM DTT or water was added, and cultures were incubated for an additional hour. Mycelia were collected with vacuum filtration and immediately frozen with liquid nitrogen. Tissue was lyophilized then ground with glass beads with a bead beater. RNA was extracted in 1 mL of TRIazole solution (Life Technologies, Cat # 15596026), then RNA was purified with two rounds of chloroform extraction. Five micrograms of RNA was treated with TURBO DNA-free kit (Invitrogen, Cat # AM1907) according to the manufacturer’s protocol. Five hundred nanograms of DNAse-treated RNA was used for cDNA synthesis with iScript cDNA synthesis kit (BioRad, Cat # 1708891), then cDNA was diluted 1:5 with ddH2O. Quantitative real time PCR analysis was performed in 20 µL reactions using 2 µL of dilute cDNA per reaction with iQ SYBR Green Supermix (BioRad). Samples were run on a BioRad CFX Connect using a three-step amplification with 54°C annealing temperature and melt curve analysis. Gene expression is normalized to tubA and tef1 expression. Gene expression was performed in biological triplicate. Primers to detect HacA splicing and targets were designed as previously described ([51]).

C. neoformans = test: MIC testing (CLSI broth dilution); format: cell-based; details: Cryptococcus neoformans, 72 h, strain H99; CLSI conditions
Method: (§1) MICs were determined using Clinical and Laboratory Standards Institute guidelines ([48], [49]). All yeasts were cultured overnight in 3 mL YPD at 30°C, then washed twice in sterile phosphate-buffered saline (PBS). Twofold serial dilutions of each drug were prepared in RMPI + MOPS, then 1 × 10^3 cells were added per well. For mold species, wells were inoculated with 1.25 × 10^3 conidia per well. Plates were incubated at 37°C for 24 (Candida spp. and S. cerevisiae), 48 (Aspergillus spp., M. circinelloides, S. apiospermum, and L. prolificans), or 72 (C. neoformans and F. oxysporum) hours. S. cerevisiae BY4743 MICs were tested in YPD due to nutritional requirements of this strain. Each assay was performed in technical duplicate in at least two independent experiments performed on different days.

A. fumigatus = test: MIC testing (CLSI broth dilution); format: cell-based; details: Aspergillus fumigatus, 48 h, strain CEA10; CLSI conditions, 48 h; read-out: MIC
Method: as §1

[2] = test system: A. fumigatus collagenase secretion; test: Detection of secreted collagenase by azocoll; format: cell-based, Aspergillus fumigatus; details: treated with 1/2 MIC of each compound
Method: 1 × 10^6 CEA10 conidia/mL were cultured in 25 mL liquid GMM for 18 hours, then mycelia were washed with sterile ddH2O and transferred to 10% FBS-MM and treated with DMSO or the indicated concentration of drugs. Cultures were incubated at 37°C, 250 rpm, for an additional 24 hours, then the supernatant and biomass were collected. One milliliter of supernatant was spun at top speed for 5 min. Azocoll of <50 mesh (Sigma, Cat # 194932) was washed in buffer (50 mM Tris, pH 7.5, 1 mM NaCl, and 0.01% sodium azide) then resuspended to 5 mg/mL. Fifteen microliters of culture supernatant was added to the 2 mL azocoll solution and incubated at 37°C with shaking at 300 rpm for 3 hours in the dark. Reactions were spun at maximum speed for 3 min; 200 µL of supernatant was then transferred to a 96-well plate; and Abs 520 was measured. Biomass was lyophilized, and absorbance readings were normalized to milligram tissue. Data represent the mean and SEM of biological triplicates with technical duplicates except for compounds 5 and 7, which are biological duplicates due to the limited availability of the drug and the required culture size for this assay.

A. fumigatus biofilms = test: A. fumigatus hyphal (biofilm) activity, resazurin; format: cell-based, Aspergillus fumigatus; details: conidia germinated 14 hours, escalating doses 24 hours
Method: To determine antifungal activity against A. fumigatus hyphae, a 96-well plate was inoculated with 1 × 10^3 conidia per well in 100 µL RPMI + MOPS with the edge wells filled with 200 µL sterile water to minimize edge effects. Plates were incubated at 37°C for 14 hours. A twofold dilution series of 1 or 7 was prepared in RPMI + MOPS at 2× concentration with 0.002% resazurin, then 100 µL of the drug was added to wells, and plates were incubated for an additional 24 hours. Fluorescence was measured with an excitation wavelength of 570 nm and an emission wavelength of 615 nm. Data are representative of two independent experiments performed in biological triplicate.

SMILES	increase in BipA expression [1]	increase in PdiA expression [1]	increase of spliced HacA (HacA^A) [1]	MIC (C. neoformans)	MIC (A. fumigatus)	collagenase secretion [2]	inhibition of hyphal growth (A. fumigatus biofilms)
O[C@@H](CS)[C@@H](O)CS (racemic) [DTT, 1,4-dithiothreitol, reference compound]	5 fold	2 fold	~ 1.5 fold	–	–	–	–
OC1CC(c2cc(N3CCC(Cc4ccc(F)cc4)CC3)ncn2)C1 (centres unmarked) [compound 3]	–	–	–	4 µg/mL (≈ 11.7 µM)	64 µg/mL (≈ 187 µM)	inhibition of collagenase secretion was similar	–
OC1CC(c2cc(N3CCC(CCN4CCCC4)CC3)ncn2)C1 (centres unmarked) [compound 4]	–	–	–	128 µg/mL (≈ 387 µM)	> 128 µg/mL	–	–
COC1CCN(c2cc(C3CC(O)C3)ncn2)CC1 (centres unmarked) [compound 6]	–	–	–	> 128 µg/mL	> 128 µg/mL	–	–
OC1CC(c2cc(NCC3CCN(CCc4ccccc4)CC3)ncn2)C1 (centres unmarked) [compound 7]	–	–	–	> 128 µg/mL	> 128 µg/mL	modest but insignificant effect	did not show inhibitory activity
